Data set [1] is described as follows: Freeze/thaw stability of QC samples. It is filed as in vitro ADME. To be noted: QC in 70 g/L albumin in PBS, two cycles of freezing and thawing, LC-MS/MS. As to the method:
(§1) Stability of analytes in processed samples was determined at six independent days for a time span of 20 h in the autosampler. Deviations of standing samples to freshly measured samples were below 19% at the LLOQ and below 9% for other QC levels for each analyte, respectively (Additional file 4). Stability of analytes in biological matrix was determined by consecutive cycles of freezing and thawing as well as extended intervals at room temperature from thawing to processing (approximately one hour).
(§2) Lyophilized authentic peptide standards were dissolved and diluted in a 70 g/L Albumin (from human serum, lyophilized, ≥ 99%, Sigma-Aldrich) in PBS (Sigma-Aldrich, St. Louis, MO, USA) solution. Internal standards C37^IS and C42^IS were dissolved in Milli-Q water (Millipore, Brussels, Belgium) containing 0.1% (v/v) formic acid (≥ 95%, Sigma-Aldrich) whereas C22^IS was only dissolved in ultrapure water. Mixtures of CAAPs used as calibration standards (calibrants) and quality control samples (QCs) were prepared as stock solution to a final concentration of 14 µM, respectively, (expect C40^SNP which was 5 µM) with subsequent serial dilutions. Calibrants and QCs were obtained from separate serial dilutions. Internal standard solution was prepared by adding equal volumes of each IS yielding a final concentration of 0.8 µM, respectively. All samples used for method development and validation were prepared and stored in 0.5 mL Protein LoBind Tubes (Eppendorf AG, Hamburg, Germany) in aliquots at − 80 °C until use.
(§3) Working range of calibrants was defined based on CAAPs detected in samples from healthy donors (set to approximate lower limit of quantification) and in samples from septic patients (set to middle to high calibration range) which were re-analyzed from a previously work[46]. Nine calibrants were used in total ranging from 0.01 µM to 1.5 µM thereby covering more than two orders of magnitude in concentration. Linearity was assessed determining mean linear regression coefficients of each calibration curve from 0.01 to 1.5 µM in eight independent analytical runs. However, respective LLOQs (lower limit of quantification) and ULOQs (upper limit of quantification) were defined individually based on natural occurrence (see above) and results from validation parameter directly affected individual working ranges (carry-over, specificity). Four QC samples were prepared and measured in total (QC1, QC2, QC3, and QC4) to cover the entire range of calibration. However, three QCs for each of the respective analytes were used for method validation. Carry-over was determined measuring pure albumin solutions prepared without internal standards (but equal amount and concentration of water/formic acid solution as regular internal standard solution, “blank albumin sample”) directly after the respective highest calibrants. Peak areas were compared to peak areas from respective LLOQ samples (prepared with regular internal standard solution). Specificity was assessed using single compounds at respective highest calibrant level which were prepared and calculated as described for carry-over. The specificity of analytes towards internal standards was determined using pure albumin solution with internal standard (“zero albumin sample”). Accuracy and precision was determined by back-calculated concentrations from repeated measurements of the same QC samples during one analytical run (within-run repeatability, n = 5) and from freshly prepared samples during five independent analytical runs (between-run, n = 5). Due to the unavailability of analyte-free biological matrix, selectivity of analytes were assessed in pure albumin solution containing internal standards. Matrix effects were determined calculating recovery rates and precision of each compound in human blood samples. Direct comparison between different anticoagulants (EDTA, lithium-heparin) and serum was performed using whole blood from the same human donor. […]

A short description of data set [2]: Benchtop stability of QC samples at room temperature. It is filed as in vitro ADME. As to conditions: QC in 70 g/L albumin in PBS, 60 min. at room temperature, LC-MS/MS. As to the method:
as §1, §2, §3

The mark [3] stands for this setting: QC2 (0.025 µM; C40^SNP see Table 1).
Where [4] appears, read: QC3 (0.3 µM; C40^SNP 0.1073 µM).

Ends that are not written are not given here.

Consider “AIPMSIPPEVKFNKPFVFLMIDQNTKSPLFMGKVVNPTQK [C40^SNP]”, for which, in data set [1] (setting [3]), the freeze/ thaw stability, accuracy (mean of n=3) turned out to be 103% and the “freeze/ thaw stability, deviation from freshly processed QCs (mean of n=3)” value (shortened to “freeze/ thaw stability, deviation”) was -3%. In data set [1] (setting [4]), the freeze/ thaw stability, accuracy (mean of n=3) was determined as 100% and the “freeze/ thaw stability, deviation” value is recorded as -3%. Further, in data set [2] (setting [3]), the benchtop stability, accuracy (mean of n=3) came to 104% and the “benchtop stability, deviation from freshly processed QCs (mean of n=3)” value (shortened to “benchtop stability, deviation”) was -1%. In data set [2] (setting [4]), the benchtop stability, accuracy (mean of n=3) amounted to 101% and the “benchtop stability, deviation” value is reported as -2%.

Consider “AIPMSIPPEVKFNKPFVFLMIEQNTKSPLFMGKVVNPTQK [C40^WT]”, for which the figures for the freeze/ thaw stability, accuracy (mean of n=3) in data set [1] (setting [3]) and in data set [1] (setting [4]) were 107% and 99%, respectively. The “freeze/ thaw stability, deviation” value in data set [1] (setting [3]) is reported as 5%; in data set [1] (setting [4]), -4%. For the same sequence, the benchtop stability, accuracy (mean of n=3) in data set [2] (setting [3]) turned out to be 109%; in data set [2] (setting [4]), 101%. Also, the entries for the “benchtop stability, deviation” value in data set [2] (setting [3]) and in data set [2] (setting [4]) were 6% and -3%, respectively.

On to “AMFLEAIPMSIPPEVKFNKPFVFLMIDQNTKSPLFMGKVVNPTQK [C45^SNP]”, for which, in data set [1] (setting [3]), the freeze/ thaw stability, accuracy (mean of n=3) came out at 109% and the “freeze/ thaw stability, deviation” value is listed as -3%. Moreover, in data set [1] (setting [4]), the freeze/ thaw stability, accuracy (mean of n=3) stood at 112% and the “freeze/ thaw stability, deviation” value is listed as -2%. Moreover, in data set [2] (setting [3]), the benchtop stability, accuracy (mean of n=3) turned out to be 114% and the “benchtop stability, deviation” value was 1%. Moreover, in data set [2] (setting [4]), the benchtop stability, accuracy (mean of n=3) worked out at 112% and the “benchtop stability, deviation” value was -2%.

Turning to “AMFLEAIPMSIPPEVKFNKPFVFLMIEQNTKSPLFMGKVVNPTQK [C45^WT]”, the freeze/ thaw stability, accuracy (mean of n=3) in data set [1] (setting [3]) turned out to be 108%; in data set [1] (setting [4]), 117%. Also, the “freeze/ thaw stability, deviation” value in data set [1] (setting [3]) is given as -6%; in data set [1] (setting [4]), -2%. Besides, the benchtop stability, accuracy (mean of n=3) in data set [2] (setting [3]) was 116%; in data set [2] (setting [4]), 117%. The results for the “benchtop stability, deviation” value in data set [2] (setting [3]) and in data set [2] (setting [4]) were 1% and -3%, respectively.

Turning to “FLEAIPMSIPPEVKFNKPFVFLMIDQNTKSPLFMGKVVNPTQK [C43^SNP]”, the freeze/ thaw stability, accuracy (mean of n=3) was found to be 105% in data set [1] (setting [3]) and 107% in data set [1] (setting [4]). Besides, the “freeze/ thaw stability, deviation” value is listed as -4% in data set [1] (setting [3]) and -3% in data set [1] (setting [4]). The benchtop stability, accuracy (mean of n=3) was found to be 109% in data set [2] (setting [3]) and 107% in data set [2] (setting [4]). The “benchtop stability, deviation” value was 1% in data set [2] (setting [3]) and -3% in data set [2] (setting [4]).

As for “FLEAIPMSIPPEVKFNKPFVFLMIEQNTKSPLFMGKVVNPTQK [C43^WT]”, the freeze/ thaw stability, accuracy (mean of n=3) came out at 103% in data set [1] (setting [3]) and 108% in data set [1] (setting [4]). The “freeze/ thaw stability, deviation” value in data set [1] (setting [3]) and in data set [1] (setting [4]) was -2% throughout. The benchtop stability, accuracy (mean of n=3) came to 110% in data set [2] (setting [3]) and 109% in data set [2] (setting [4]). The “benchtop stability, deviation” value in data set [2] (setting [3]) is recorded as 4%; in data set [2] (setting [4]), -1%.

For the sequence “IPMSIPPEVKFNKPFVFLMIDQNTKSPLFMGKVVNPTQK [C39^SNP]”, in data set [1] (setting [3]), the freeze/ thaw stability, accuracy (mean of n=3) is 105% and the “freeze/ thaw stability, deviation” value is listed as -1%. Also, in data set [1] (setting [4]), the freeze/ thaw stability, accuracy (mean of n=3) was found to be 102% and the “freeze/ thaw stability, deviation” value is reported as -2%. In addition, in data set [2] (setting [3]), the benchtop stability, accuracy (mean of n=3) was found to be 102% and the “benchtop stability, deviation” value is -4%. In data set [2] (setting [4]), the benchtop stability, accuracy (mean of n=3) came out at 100% and the “benchtop stability, deviation” value is reported as -4%.

For the sequence “IPMSIPPEVKFNKPFVFLMIEQNTKSPLFMGKVVNPTQK [C39^WT]”, in data set [1] (setting [3]), the freeze/ thaw stability, accuracy (mean of n=3) was found to be 107% and the “freeze/ thaw stability, deviation” value worked out at 8%. Further, in data set [1] (setting [4]), the freeze/ thaw stability, accuracy (mean of n=3) is 101% and the “freeze/ thaw stability, deviation” value came out at 2%. Besides, in data set [2] (setting [3]), the benchtop stability, accuracy (mean of n=3) amounted to 106% and the “benchtop stability, deviation” value is 8%. Further, in data set [2] (setting [4]), the benchtop stability, accuracy (mean of n=3) came to 98% and the “benchtop stability, deviation” value is reported as -1%.

In the case of “LEAIPMSIPPEVKFNKPFVFLMIDQNTKSPLFMGKVVNPTQK [C42^SNP]”, the values for the freeze/ thaw stability, accuracy (mean of n=3) in data set [1] (setting [3]) and in data set [1] (setting [4]) were 105% and 100%, respectively. Moreover, the “freeze/ thaw stability, deviation” value in data set [1] (setting [3]) is recorded as 2%; in data set [1] (setting [4]), -4%. Also, the values for the benchtop stability, accuracy (mean of n=3) in data set [2] (setting [3]) and in data set [2] (setting [4]) were 104% and 101%, respectively. Besides, the “benchtop stability, deviation” value is 1% in data set [2] (setting [3]) and -3% in data set [2] (setting [4]).

As to “LEAIPMSIPPEVKFNKPFVFLMIEQNTKSPLFMGKVVNPTQK [C42^WT]”, the freeze/ thaw stability, accuracy (mean of n=3) in data set [1] (setting [3]) worked out at 104%; in data set [1] (setting [4]) it was 100%. For the same sequence, the figures for the “freeze/ thaw stability, deviation” value in data set [1] (setting [3]) and in data set [1] (setting [4]) were 2% and -4%, respectively. The benchtop stability, accuracy (mean of n=3) in data set [2] (setting [3]) stood at 102%; in data set [2] (setting [4]), 101%. Moreover, the “benchtop stability, deviation” value is listed as 1% in data set [2] (setting [3]) and -3% in data set [2] (setting [4]).

Regarding LMIDQNTKSPLFMGKVVNPTQK [C22^SNP], in data set [1] (setting [3]), the freeze/ thaw stability, accuracy (mean of n=3) was determined as 103% and the “freeze/ thaw stability, deviation” value was determined as 2%. In data set [1] (setting [4]), the freeze/ thaw stability, accuracy (mean of n=3) came out at 97% and the “freeze/ thaw stability, deviation” value was 0%. Also, in data set [2] (setting [3]), the benchtop stability, accuracy (mean of n=3) was 104% and the “benchtop stability, deviation” value was 2%. Also, in data set [2] (setting [4]), the benchtop stability, accuracy (mean of n=3) came to 100% and the “benchtop stability, deviation” value was determined as 3%.

As for LMIEQNTKSPLFMGKVVNPTQK [C22^WT], in data set [1] (setting [3]), the freeze/ thaw stability, accuracy (mean of n=3) worked out at 104% and the “freeze/ thaw stability, deviation” value came to 2%. For the same sequence, in data set [1] (setting [4]), the freeze/ thaw stability, accuracy (mean of n=3) was 99% and the “freeze/ thaw stability, deviation” value is -2%. Further, in data set [2] (setting [3]), the benchtop stability, accuracy (mean of n=3) amounted to 103% and the “benchtop stability, deviation” value came out at 1%. Besides, in data set [2] (setting [4]), the benchtop stability, accuracy (mean of n=3) worked out at 102% and the “benchtop stability, deviation” value turned out to be 1%.

As for “MFLEAIPMSIPPEVKFNKPFVFLMIDQNTKSPLFMGKVVNPTQK [C44^SNP]”, in data set [1] (setting [3]), the freeze/ thaw stability, accuracy (mean of n=3) was determined as 109% and the “freeze/ thaw stability, deviation” value is reported as -6%. For the same sequence, in data set [1] (setting [4]), the freeze/ thaw stability, accuracy (mean of n=3) came to 115% and the “freeze/ thaw stability, deviation” value was -2%. Moreover, in data set [2] (setting [3]), the benchtop stability, accuracy (mean of n=3) was found to be 114% and the “benchtop stability, deviation” value is -2%. Moreover, in data set [2] (setting [4]), the benchtop stability, accuracy (mean of n=3) was 115% and the “benchtop stability, deviation” value is reported as -2%.

The record behind these values is article PMC8907207, “Multiplex quantification of C-terminal alpha-1-antitrypsin peptides provides a novel approach for characterizing systemic inflammation” (Scientific Reports, 2022).
